Assay results taken from publication PMC6324813, “Biological evaluation of isoflavonoids from Genista halacsyi using estrogen-target cells: Activities of glucosides compared to aglycones” (PLoS ONE, 2019).
Where two headings read alike, the source gives them in different places.

Key:
[1] = test system: Ishikawa cells; assay: Induction of AlkP expression in Ishikawa cells; type: cell-based, human; details: for Induction of Alkaline Phosphatase Expression (Ishikawa cells) AUC (%): % of AUC of luciferase response of archetypal 3, 4, 5 or 8 up to 0.3, 10, 1.0 and 3.0 μM; for EC (25% of 0.1 nM E2 effect) / activation at 1 µM / EC50: Homo sapiens, Ishikawa; for EC (25% of 0.1 nM E2 effect) / activation at 1 µM / Induction of AlkP expression (Ishikawa cells) Agonism at 1μΜ, class: 72 h; for EC (25% of 0.1 nM E2 effect): concentration required to achieve 25% of the effect of 0.1 nM E2, read-out: Induction of Alkaline Phosphatase Expression (Ishikawa cells) EC25E2; for activation at 1 µM: read-out: Induction of AlkP expression (Ishikawa cells) Agonism at 1μΜ (% of 0.1nM E2); for EC50: concentration required to achieve 50% of the effect of 0.1 nM E2, read-out: Induction of Alkaline Phosphatase Expression (Ishikawa cells) EC50E2; for Ratio of AUC (AlkP / Lucif): AUCAlkP / AUCluciferase; for Induction of AlkP expression (Ishikawa cells) Agonism at 1μΜ, class: compounds 1 μM
Method: Induction of AlkP expression of Ishikawa cells is considered as a reliable in vitro measure of estrogenic activity. Assessment of AlkP expression in Ishikawa cells was carried as already described. Briefly, the cells were plated in 96-well plates at a density of 12,000 cells per well in phenol-red-free MEM supplemented with 1 μg/mL insulin and 5% DCC-FBS. […] Data on the dependence of AlkP activity on isoflavonoid concentration were curve fitted using SigmaPlot10 (SPSS Inc) and the numerical data of curve fitting were used to determine AUC as described above, using for the calculation of AUC of a particular AlkP response the very same concentration used for the respective luciferase response. The AUC of AlkP responses of the isoflavonoids of a group were expressed as % of the AUC of the luciferase response of the respective archetypal isoflavone.

[2] = test system: MCF-7 cells; assay: MCF-7 cell proliferation (MTT); type: cell-based, human; details: for activation at 1 µM: Homo sapiens, MCF7, 72 h, read-out: Induction of cell proliferation (MCF-7 cells) Agonism at 1μΜ (% of 0.1nM E2); for Induction of cell proliferation (MCF-7 cells) Agonism at 1μΜ, class: compounds 1 μM, 72 h
Method: Test compound effects on the proliferation of MCF-7 and MDA-MB-231 cells were assessed as previously described.

[3] = target: T1, ERα (Homo sapiens, UniProt P03372); design: purchased Invitrogen; details: cited from earlier work
T1 sequence (P03372 1-595): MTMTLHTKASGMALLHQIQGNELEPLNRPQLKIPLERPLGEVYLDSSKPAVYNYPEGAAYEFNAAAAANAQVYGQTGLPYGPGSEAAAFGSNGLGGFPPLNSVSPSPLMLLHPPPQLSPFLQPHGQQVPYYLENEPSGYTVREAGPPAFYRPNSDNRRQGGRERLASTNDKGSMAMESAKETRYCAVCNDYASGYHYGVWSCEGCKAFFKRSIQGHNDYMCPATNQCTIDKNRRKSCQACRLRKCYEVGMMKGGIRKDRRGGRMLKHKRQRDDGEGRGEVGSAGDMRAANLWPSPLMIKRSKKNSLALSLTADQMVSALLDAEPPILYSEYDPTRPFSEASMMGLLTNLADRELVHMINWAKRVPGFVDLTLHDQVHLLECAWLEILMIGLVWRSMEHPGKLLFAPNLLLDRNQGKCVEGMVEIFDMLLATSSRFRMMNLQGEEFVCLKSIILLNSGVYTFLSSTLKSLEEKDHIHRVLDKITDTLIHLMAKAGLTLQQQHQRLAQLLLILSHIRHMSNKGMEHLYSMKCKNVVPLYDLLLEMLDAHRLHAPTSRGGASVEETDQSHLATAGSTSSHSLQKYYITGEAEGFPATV

[4] = target: T2, ERβ (Homo sapiens, UniProt Q92731); design: purchased Invitrogen; details: cited from earlier work
T2 sequence (Q92731 whole entry): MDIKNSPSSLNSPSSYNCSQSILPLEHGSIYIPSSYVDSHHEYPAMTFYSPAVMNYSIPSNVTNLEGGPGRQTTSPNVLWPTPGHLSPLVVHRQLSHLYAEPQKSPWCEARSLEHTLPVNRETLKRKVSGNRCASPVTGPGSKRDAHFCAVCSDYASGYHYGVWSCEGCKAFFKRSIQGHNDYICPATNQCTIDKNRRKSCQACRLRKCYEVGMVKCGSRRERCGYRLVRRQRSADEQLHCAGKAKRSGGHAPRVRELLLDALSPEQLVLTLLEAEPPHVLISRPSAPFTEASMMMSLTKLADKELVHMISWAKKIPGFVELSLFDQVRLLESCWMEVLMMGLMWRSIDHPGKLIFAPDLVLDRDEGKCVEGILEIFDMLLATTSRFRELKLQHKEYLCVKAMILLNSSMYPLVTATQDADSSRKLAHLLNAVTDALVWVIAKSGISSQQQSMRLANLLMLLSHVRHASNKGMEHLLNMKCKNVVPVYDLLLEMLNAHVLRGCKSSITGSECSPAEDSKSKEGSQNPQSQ

[5] = target: T2, ERβ; assay: ERE-dependent luciferase gene transcription in HEK:ERβ cells; type: cell-based; design: expressed in transfected cells; host or cells: HEK-293 (HEK:ERβ clone, with pERE-tk-Luciferase)
Method: (§1) Assessment of ER/ERE-dependent luciferase gene transcription in MCF-7:D5L (express ERα) and HEK:ERβ cells (express ERβ) and determination of ER transcriptional agonism was carried as already described. Briefly, the cells were plated in 96-well plates at a density of 12,000 cells per well in phenol-red-free MEM (MCF-7:D5L cells) or phenol-red-free DMEM (HEK:ERβ cells) supplemented with 1 μg/mL insulin and 5% DCC-FBS. […] The AUC of the isoflavonoids of each group were then expressed as % of the AUC of the respective archetypal isoflavone. Since AUC data combine the efficacy as well as the potency of cell response into a single parameter, the %AUC data were considered here as a more reliable measure of relative ER/ERE-dependent luciferase expression of the test compounds.

[6] = target: T1, ERα; assay: ERE-dependent luciferase gene transcription in MCF-7:D5L cells; type: cell-based; design: MCF-7:D5L cells, a clone of MCF-7 cells stably transfected with an Estrogen Response Element (ERE)-endowed reporter plasmid; endogenous in cells; host or cells: MCF-7:D5L (MCF-7 clone carrying pERE-Gl-Luciferase); details: for Induction of ERE-dependent Luciferase Transcription (MCF-7:D5L cells) AUC (%): % of AUC of luciferase response of archetypal 3, 4, 5 or 8 up to 0.3, 10, 1.0 and 3.0 μM; for Induction of luciferase gene transcription through ERα, MCF-7:D5L cells, Agonism at 1μΜ (% of 0.1nM E2) / Induction of luciferase gene transcription, MCF-7:D5L cells, Agonism at 1μΜ, class: compounds 1 μM, 18 h; for Induction of luciferase gene transcription through ERα, MCF-7:D5L cells, Agonism at 1μΜ (% of 0.1nM E2): estradiol 0.1 nM; for Induction of ERE-dependent Luciferase Transcription (MCF-7:D5L cells) EC25E2: concentration required to achieve 25% of the effect of 0.1 nM E2; for EC50: concentration required to achieve 50% of the effect of 0.1 nM E2, read-out: Induction of ERE-dependent Luciferase Transcription (MCF-7:D5L cells) EC50E2
Method: as §1

[7] = target: T1, ERα; assay: ER binding competitor assay (fluorescent estrogen ES2), ERα; design: purchased Invitrogen; details: RBA = (IC50 estradiol/IC50 compound) × 100; ES2 1 nM; estradiol set equal to 100
[8] = target: T2, ERβ; assay: ER binding competitor assay (fluorescent estrogen ES2), ERβ; design: purchased Invitrogen; details: for RBAβ / RBAα: ERβ-binding selectivity; for RBAβ: RBA = (IC50 estradiol/IC50 compound) × 100, ES2 1 nM, estradiol set equal to 100
[9] = test system: TNFα mRNA; details: 1–10 μM, ER-independent; cited from earlier work
[10] = isoflavonoids 1 μM, statistically significant effects

Row | SMILES | EC50 [1] | Induction of ERE-dependent Luciferase Transcription (MCF-7:D5L cells) AUC (%) [6] | Induction of luciferase gene transcription through ERα, MCF-7:D5L cells, Agonism at 1μΜ (% of 0.1nM E2) [6] | Induction of ERE-dependent Luciferase Transcription (MCF-7:D5L cells) EC25E2 [6] | RBAα [7] | RBAβ / RBAα [8] | RBAβ [8] | Induction of luciferase gene transcription, HEK:ERβ cells, Agonism at 1μΜ, class ([5]; compounds 1 μM, 18 h) | Induction of luciferase gene transcription, MCF-7:D5L cells, Agonism at 1μΜ, class [6] | EC50 [6] | Induction of Alkaline Phosphatase Expression (Ishikawa cells) AUC (%) [1] | EC (25% of 0.1 nM E2 effect) [1] | activation at 1 µM [1] | activation at 1 µM [2] | mean value (and the range) of previously reported RBAα [3] | mean value (and the range) of previously reported RBAβ [4] | Ratio of AUC (AlkP / Lucif) [1] | Induction of AlkP expression (Ishikawa cells) Agonism at 1μΜ, class [1] | Induction of cell proliferation (MCF-7 cells) Agonism at 1μΜ, class [2] | other results
1 | COc1ccc(-c2coc3cc(O)cc(O)c3c2=O)cc1 [Compound 1, Biochanin A] | 420 ± 30 nM | 33±8 % | 83 ± 16 (Full) % of 0.1nM E2 | 160 ± 90 nM |  |  |  |  |  | 300 ± 30 nM | 26±2 % | 0.19 ± 0.01 µM | 53 ± 9% | 70 ± 10% | 0.18 (0.02–0.34) | 0.69 (0.18–1.20) | 0.79±0.04 |  |  | AlkP-inducing agonist effect compared to the effect of 0.1 nM estradiol [1, 10]: lower than; selectivity for ERβ (class of RBAβ/RBAα) [8]: moderate (3–10); RBAβ / RBAα ([4]; ERβ-binding selectivity, ref 51 (Fokialakis et al.)): 3.83; activation at 1 µM ([5]; 18 h, read-out: Induction of luciferase gene transcription through ERβ, HEK:ERβ cells, Agonism at 1μΜ (% of 0.1nM E2)): 31 ± 15%; ERβ-dependent gene transcription agonist effect compared to the effect of 0.1 nM estradiol [5, 10]: lower than
2 | Oc1ccc(C2COc3cc(O)ccc3C2)cc1 (stereo not drawn) [equol, 4',7-isoflavandiol] |  |  |  |  |  |  |  |  |  |  |  |  |  |  |  |  |  |  |  | suppression of LPS-induced TNFα mRNA expression and cytokine release [9]: dose-dependent suppression

More lines, main results first:

Row | EC50 [1] | Induction of ERE-dependent Luciferase Transcription (MCF-7:D5L cells) AUC (%) [6] | Induction of luciferase gene transcription through ERα, MCF-7:D5L cells, Agonism at 1μΜ (% of 0.1nM E2) [6] | Induction of ERE-dependent Luciferase Transcription (MCF-7:D5L cells) EC25E2 [6] | RBAα [7] | RBAβ / RBAα [8] | RBAβ [8] | Induction of luciferase gene transcription, HEK:ERβ cells, Agonism at 1μΜ, class ([5]; compounds 1 μM, 18 h) | Induction of luciferase gene transcription, MCF-7:D5L cells, Agonism at 1μΜ, class [6] | EC50 [6] | SMILES | Induction of Alkaline Phosphatase Expression (Ishikawa cells) AUC (%) [1] | EC (25% of 0.1 nM E2 effect) [1] | activation at 1 µM [1] | activation at 1 µM [2] | mean value (and the range) of previously reported RBAα [3] | mean value (and the range) of previously reported RBAβ [4] | Ratio of AUC (AlkP / Lucif) [1] | Induction of AlkP expression (Ishikawa cells) Agonism at 1μΜ, class [1] | Induction of cell proliferation (MCF-7 cells) Agonism at 1μΜ, class [2] | other results
3 | 1300 ± 150 nM | 100±13% | 50 ± 12 (Partial) ^* % of 0.1nM E2 | 380 ± 70 nM |  |  |  |  |  |  | O=c1c(-c2ccc(O)cc2)coc2cc(O)ccc12 [Compound 5, daidzein] | 104±19% | 0.46 ± 0.05 µM | 54 ± 4% | 59 ± 7% | 0.20 (0.01–0.55) | 0.65 (0.04–2.11) |  |  |  | RBAβ ([4]; estradiol = 100, ref 27 (Halabalaki et al.)): 0.36 ± 0.09; Induction of luciferase gene transcription through ERβ, HEK:ERβ cells, Agonism at 1μΜ (% of 0.1nM E2) ([5]; compounds 1 μM, estradiol 0.1 nM, 18 h): 84 ± 8 (Full) % of 0.1nM E2; ERα-dependent gene transcription agonist effect compared to the effect of 0.1 nM estradiol [6, 10]: lower than
4 | > 30000 nM | 1.6±0.3 % |  | >30000 nM | 0.11 ± 0.03 | 0.45 | 0.05 ± 0.01 | Marginal (⩽10%) | Marginal (⩽10%) | > 30000 nM | O=c1c(-c2ccc(O)c(O)c2)coc2c(C3OC(CO)C(O)C(O)C3O)c(O)cc(O)c12 (stereo not drawn) [Compound 9, 8-C-glucopyranosyl-orobol] | 1.1±0.1 % | > 30 µM |  |  |  |  | 0.69±0.07 | Marginal (⩽10%) | Marginal (⩽10%) | AlkP response lower than ERα-transcriptional response (relative AUC ratios) [1]: ~ 30%
5 | > 30000 nM | 0.7±0.1 % |  | >30000 nM | 0.06 ± 0.02 | 2.50 | 0.15 ± 0.04 | Marginal (⩽10%) | Marginal (⩽10%) | > 30000 nM | COc1ccc(-c2coc3c(OC)c(O)ccc3c2=O)cc1 [Compound 2, 8-methoxyformononetin] | 0.5±0.2 % | > 30 µM |  |  |  |  | 0.71±0.15 | Marginal (⩽10%) | Marginal (⩽10%) | 
